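Grown in 96-well plates, cells were treated for 48 hours with each compound at five concentrations. Insufficient inhibition: endpoint recorded as highest concentration tested. GI50 = concentration required for 50% inhibition of growth.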 Calls of active or inactive are those of the source. No stated cut-off is given here; in the data, active = GI50 up to about 1.1 µM and inactive = higher.
What was measured:
Assay in all cases: NCI anticancer screen, dose series, 48 h
SK-MEL-28 = test system: SK-MEL-28
SN12C = test system: SN12C
OVCAR-4 = test system: OVCAR-4
SW-620 = test system: SW-620
SK-OV-3 = test system: SK-OV-3
HCC 2998 = test system: HCC 2998
Malme-3M = test system: Malme-3M
HCT-116 = test system: HCT-116
SNB-19 = test system: SNB-19
OVCAR-3 = test system: OVCAR-3
NCI-H23 = test system: NCI-H23
ACHN = test system: ACHN
UO-31 = test system: UO-31
SK-MEL-5 = test system: SK-MEL-5
HOP-92 = test system: HOP-92
NCI-H226 = test system: NCI-H226
RXF 393 = test system: RXF 393

| Compound | GI50 (SK-MEL-28) | GI50 (SN12C) | GI50 (OVCAR-4) | GI50 (SW-620) | GI50 (SK-OV-3) | GI50 (HCC 2998) | GI50 (Malme-3M) | GI50 (HCT-116) | GI50 (SNB-19) | GI50 (OVCAR-3) | GI50 (NCI-H23) | GI50 (ACHN) | GI50 (UO-31) | GI50 (SK-MEL-5) | GI50 (HOP-92) | GI50 (NCI-H226) | GI50 (RXF 393) |
| --- | --- | --- | --- | --- | --- | --- | --- | --- | --- | --- | --- | --- | --- | --- | --- | --- | --- |
| CN(C(=O)C12C3C4C5C3C1(C(=O)O)C5C42)C(C)(C)C (stereo unspecified) | > 100 µM (inactive) | > 100 µM (inactive) | > 100 µM (inactive) | 23.9 µM (inactive) | > 100 µM (inactive) | > 100 µM (inactive) | > 100 µM (inactive) | 34.2 µM (inactive) | > 100 µM (inactive) | > 100 µM (inactive) | > 100 µM (inactive) | > 100 µM (inactive) | > 100 µM (inactive) | > 100 µM (inactive) | > 100 µM (inactive) | > 100 µM (inactive) | – |
| O=c1c(-c2ccccc2)c2oc(c1-c1ccccc1)CSCc1cccc(c1)CSC2 | 24 µM (inactive) | 49.1 µM (inactive) | 51.9 µM (inactive) | 30.3 µM (inactive) | 25.1 µM (inactive) | 94.6 µM (inactive) | 45.5 µM (inactive) | 41.2 µM (inactive) | 33 µM (inactive) | 27.8 µM (inactive) | > 100 µM (inactive) | 18.5 µM (inactive) | 32.1 µM (inactive) | 54.2 µM (inactive) | 34.3 µM (inactive) | 56.4 µM (inactive) | 14.5 µM (inactive) |
| CCOC(=O)[C@H]1Nc2ccc(O)cc2C2c3ccccc3CC21 (stereo partly specified) | 34.8 µM (inactive) | 87.1 µM (inactive) | 42.1 µM (inactive) | > 100 µM (inactive) | – | 49 µM (inactive) | > 100 µM (inactive) | 68.1 µM (inactive) | > 100 µM (inactive) | 35.2 µM (inactive) | 53.7 µM (inactive) | 51.4 µM (inactive) | 98.2 µM (inactive) | 33.3 µM (inactive) | – | > 100 µM (inactive) | 17.7 µM (inactive) |
| COc1cccc(C2C(C(=O)Nc3cc(=O)n(C)c(=O)n3C)=C(C)NC(C)=C2C(=O)Nc2cc(=O)n(C)c(=O)n2C)c1O | > 100 µM (inactive) | > 100 µM (inactive) | > 100 µM (inactive) | > 100 µM (inactive) | > 100 µM (inactive) | > 100 µM (inactive) | > 100 µM (inactive) | – | > 100 µM (inactive) | > 100 µM (inactive) | > 100 µM (inactive) | > 100 µM (inactive) | > 100 µM (inactive) | > 100 µM (inactive) | > 100 µM (inactive) | > 100 µM (inactive) | > 100 µM (inactive) |
| Cc1ccc(S(=O)(=O)C2CC2(Cl)Cl)cc1 (stereo unspecified) | 53.1 µM (inactive) | 18.7 µM (inactive) | 0.0162 µM (active) | 22.3 µM (inactive) | > 100 µM (inactive) | 44.4 µM (inactive) | 19.6 µM (inactive) | 20.4 µM (inactive) | > 100 µM (inactive) | 19.9 µM (inactive) | 24.7 µM (inactive) | 25.6 µM (inactive) | 22 µM (inactive) | – | 26 µM (inactive) | > 100 µM (inactive) | 15.1 µM (inactive) |
| CCOc1ccc(NC(=O)CC2C(=O)Nc3ccccc3[S+]2[O-])cc1 (stereo unspecified) | > 100 µM (inactive) | > 71 µM (inactive) | > 57.1 µM (inactive) | > 76.6 µM (inactive) | > 100 µM (inactive) | > 64.7 µM (inactive) | 98.2 µM (inactive) | > 85.3 µM (inactive) | 59.6 µM (inactive) | > 59.7 µM (inactive) | > 76.6 µM (inactive) | > 52.7 µM (inactive) | > 52 µM (inactive) | > 100 µM (inactive) | 23.4 µM (inactive) | > 64.7 µM (inactive) | 37.8 µM (inactive) |
| N#CC1=C(c2ccccc2)OC2(N)OC(c3ccccc3)=C(C#N)C12C#N (stereo unspecified) | > 100 µM (inactive) | > 100 µM (inactive) | 60.3 µM (inactive) | > 100 µM (inactive) | > 100 µM (inactive) | > 100 µM (inactive) | > 100 µM (inactive) | – | > 100 µM (inactive) | 36.9 µM (inactive) | > 100 µM (inactive) | > 100 µM (inactive) | 31.5 µM (inactive) | > 100 µM (inactive) | – | – | 69.3 µM (inactive) |
| C[Si](C)(c1ccccc1)C1CC(=O)CC(=O)C1 | > 100 µM (inactive) | > 100 µM (inactive) | > 100 µM (inactive) | > 100 µM (inactive) | > 100 µM (inactive) | > 100 µM (inactive) | > 100 µM (inactive) | > 100 µM (inactive) | > 100 µM (inactive) | > 100 µM (inactive) | > 100 µM (inactive) | > 100 µM (inactive) | 19.9 µM (inactive) | > 100 µM (inactive) | – | > 100 µM (inactive) | 37.3 µM (inactive) |
| COc1nc2c(c(O)c(C)c(=O)n2OC2OCC(OC(C)=O)C(OC(C)=O)C2OC(C)=O)c(=O)n1C (stereo unspecified) | > 100 µM (inactive) | > 100 µM (inactive) | > 100 µM (inactive) | > 100 µM (inactive) | – | > 100 µM (inactive) | – | > 100 µM (inactive) | > 100 µM (inactive) | – | > 100 µM (inactive) | > 100 µM (inactive) | > 100 µM (inactive) | > 100 µM (inactive) | – | > 100 µM (inactive) | > 100 µM (inactive) |
| C[N+](C)(C)CC(=O)N/N=C(/C=C/c1ccccc1)CC1OC(=O)c2ccccc21 (stereo unspecified) | > 100 µM (inactive) | > 100 µM (inactive) | > 100 µM (inactive) | > 100 µM (inactive) | > 100 µM (inactive) | > 100 µM (inactive) | > 100 µM (inactive) | > 100 µM (inactive) | > 100 µM (inactive) | – | > 10 µM (inactive) | > 100 µM (inactive) | > 100 µM (inactive) | > 100 µM (inactive) | > 10 µM (inactive) | > 100 µM (inactive) | > 100 µM (inactive) |
| O=c1[nH]cc(F)c(=O)n1C1OC(CO)C(O)C1O (stereo unspecified) | > 100 µM (inactive) | > 100 µM (inactive) | > 100 µM (inactive) | > 100 µM (inactive) | > 100 µM (inactive) | > 100 µM (inactive) | > 100 µM (inactive) | – | > 100 µM (inactive) | > 100 µM (inactive) | > 100 µM (inactive) | > 100 µM (inactive) | > 100 µM (inactive) | > 100 µM (inactive) | > 100 µM (inactive) | > 100 µM (inactive) | > 100 µM (inactive) |
| CCOc1ccc2c(c1)[n+]([O-])c(C(N)=O)c(N)[n+]2[O-] | > 100 µM (inactive) | > 100 µM (inactive) | > 100 µM (inactive) | > 100 µM (inactive) | > 100 µM (inactive) | – | > 100 µM (inactive) | > 100 µM (inactive) | > 100 µM (inactive) | > 100 µM (inactive) | > 100 µM (inactive) | > 100 µM (inactive) | > 100 µM (inactive) | > 100 µM (inactive) | > 100 µM (inactive) | > 100 µM (inactive) | > 100 µM (inactive) |
| O=C(O)/C(Cl)=C(\Cl)Nc1cccc(C(F)(F)F)c1 | > 100 µM (inactive) | > 100 µM (inactive) | > 100 µM (inactive) | > 100 µM (inactive) | > 100 µM (inactive) | > 100 µM (inactive) | > 100 µM (inactive) | – | – | > 100 µM (inactive) | > 100 µM (inactive) | > 100 µM (inactive) | > 100 µM (inactive) | – | 9.2 µM (inactive) | – | > 100 µM (inactive) |
| Cc1cc2c(C(C)C)c(O)c(O)c(/C=N\CCO)c2c(O)c1-c1c(C)cc2c(C(C)C)c(O)c(O)c(/C=N/CCO)c2c1O | 1.67 µM (inactive) | 2.84 µM (inactive) | 3.6 µM (inactive) | 3.83 µM (inactive) | 3.37 µM (inactive) | 2.9 µM (inactive) | 2.47 µM (inactive) | 1.67 µM (inactive) | 2.05 µM (inactive) | 2.02 µM (inactive) | 1.76 µM (inactive) | 3.37 µM (inactive) | 3.44 µM (inactive) | 1.73 µM (inactive) | 1.75 µM (inactive) | 2.51 µM (inactive) | 3.56 µM (inactive) |
| C[C@@H]1OC(=O)N2CCCC(=C3SCCCS3)C12 (stereo partly specified) | > 100 µM (inactive) | > 100 µM (inactive) | > 100 µM (inactive) | > 100 µM (inactive) | > 100 µM (inactive) | – | > 100 µM (inactive) | 44.4 µM (inactive) | > 100 µM (inactive) | > 100 µM (inactive) | 64 µM (inactive) | 93.5 µM (inactive) | 19.4 µM (inactive) | – | 29.6 µM (inactive) | 44.9 µM (inactive) | 68.4 µM (inactive) |
| COC(=O)CCC(=O)CC(=O)C(=O)Nc1c(Cl)cc([N+](=O)[O-])cc1Cl | > 100 µM (inactive) | > 100 µM (inactive) | > 100 µM (inactive) | – | > 100 µM (inactive) | > 100 µM (inactive) | > 100 µM (inactive) | 42.3 µM (inactive) | > 100 µM (inactive) | > 100 µM (inactive) | > 100 µM (inactive) | > 100 µM (inactive) | > 100 µM (inactive) | > 100 µM (inactive) | 38.7 µM (inactive) | > 100 µM (inactive) | > 100 µM (inactive) |
| O=C1C(N2C(=O)c3ccccc3C2=O)CN1C(COCc1ccccc1)c1ccc(OCc2ccccc2)cc1 (stereo unspecified) | > 100 µM (inactive) | > 100 µM (inactive) | > 100 µM (inactive) | > 100 µM (inactive) | > 100 µM (inactive) | > 100 µM (inactive) | > 100 µM (inactive) | > 100 µM (inactive) | > 100 µM (inactive) | > 100 µM (inactive) | > 100 µM (inactive) | > 100 µM (inactive) | > 100 µM (inactive) | > 100 µM (inactive) | > 100 µM (inactive) | > 100 µM (inactive) | > 100 µM (inactive) |

From ChEMBL document CHEMBL1201862, “PubChem BioAssay data set” (2004)
